In brackets after ≈: the same amount, converted by molar mass.
Tested on: TIE-1
Assay: minimum inhibitory concentration (MIC) of antibiotics for TIE-1
Assay type: cell-based, Rhodopseudomonas palustris TIE-1
Conditions: resistance of TIE-1 to selection antibiotics; for MIC: Rhodopseudomonas palustris

| Compound | MIC [µg/mL] | minimum inhibitory concentration (MIC) [µg/mL] |
| --- | --- | --- |
| O=C(N[C@H](CO)[C@H](O)c1ccc([N+](=O)[O-])cc1)C(Cl)Cl [chloramphenicol] | 100 (≈ 309 µM) | – |
| NC[C@H]1O[C@H](O[C@H]2[C@H](O)[C@@H](O[C@H]3O[C@H](CO)[C@@H](O)[C@H](N)[C@H]3O)[C@H](N)C[C@@H]2N)[C@H](O)[C@@H](O)[C@@H]1O [kanamycin] | 50 (≈ 103 µM) | – |
| gentamicin | – | 200 |

Source: patent US20240384226A1, “RHODOPSEUDOMONAS PALUSTRIS TIE-1 STRAINS AND METHODS FOR BIOPLASTIC PRODUCTION” (Washington University, priority 2023, published 2024)
